Source: paper PMC7031696 (Cell chemical biology, 2019)
Where two headings read alike, the source gives them in different places.

Experiments:
[1] = test system: 3D7-MR4 trophozoite parasite-infected RBCs; assay: Metabolomic profiling (hydrophilic metabolite changes, UHPLC-MS); type: cell-based, Plasmodium falciparum
[2] = test system: asynchronous 3D7-A10 parasite cultures; assay: Standard 72-h exposure asexual blood stage susceptibility assay (IC50^72h); type: cell-based, Plasmodium falciparum; conditions: Plasmodium falciparum, 3D7, 72 h, read-out: Overall (72hr assay) Mean IC50 (IC50^72h)
[3] = test system: Plasmodium falciparum 3D7-A10 parasites; assay: Stage specificity assay (8-h exposure of synchronized stages, IC50^8h); type: cell-based; conditions: for IC50: Plasmodium falciparum

IC50 [2]: 0.0118 µM | Ratio lowest IC50 8hr/IC50 72hr ([3]; 3D7-A10): 3.9 | IC50 ([3]; 3D7, read-out: Early rings Mean IC50, shift 2, 8-h exposure 0–8 hr, line 'shift 2'): 16.3 µM | IC50 ([3]; 3D7, read-out: Early trophozoites Mean IC50, shift 2, 8-h exposure 16–24 hr, line 'shift 2' of biphasic dose response): 5.14 µM | IC50 ([3]; 3D7, read-out: Late rings Mean IC50, shift 2, 8-h exposure 8–16 hr, line 'shift 2'): 14 µM | IC50 ([3]; 3D7, read-out: Late trophozoites Mean IC50, shift 1, 8-h exposure 24–32 hr, line 'shift 1' of biphasic dose response): 0.161 µM | IC50 ([3]; 3D7, read-out: Late trophozoites Mean IC50, shift 2, 8-h exposure 24–32 hr, line 'shift 2' of biphasic dose response): 13.4 µM | IC50 ([3]; 3D7, read-out: Schizonts Mean IC50, shift 2, 8-h exposure 32–40 hr, line 'shift 2'): 0.0462 µM
SMILES: CN(C(=O)c1cn2c(-c3ccc(C(F)(F)F)cc3)cnc2cn1)c1ccc(C#N)cc1 [KAI407, reference compound]
Log2(fold changes) 3-phosphoglycerate ([1]; metabolite 3-phosphoglycerate, log2 fold change): -0.5235 | Log2(fold changes) 4-Pyridoxic acid ([1]; metabolite 4-Pyridoxic acid, log2 fold change): 0.0000 | Log2(fold changes) 4-aminobutyrate ([1]; metabolite 4-aminobutyrate, log2 fold change): -0.0697 | Log2(fold changes) 4-phosphopantetheine ([1]; metabolite 4-phosphopantetheine, log2 fold change): -0.3259 | Log2(fold changes) 4-phosphopantothenate ([1]; metabolite 4-phosphopantothenate, log2 fold change): -0.0998 | Log2(fold changes) 5-aminopentanoic acid ([1]; metabolite 5-aminopentanoic acid, log2 fold change): 0.0000 | Log2(fold changes) 5-methyl-THF ([1]; metabolite 5-methyl-THF, log2 fold change): 0.0000 | Log2(fold changes) 5-phosphoribosyl-1-pyrophosphate ([1]; metabolite 5-phosphoribosyl-1-pyrophosphate, log2 fold change): 0.0000 | Log2(fold changes) 6-phospho-D-gluconate ([1]; metabolite 6-phospho-D-gluconate, log2 fold change): -0.0493 | Log2(fold change) HVDD ([1]; metabolite HVDD): 0.0000 | Log2(fold change) Hydroxyisocaproic acid ([1]; metabolite Hydroxyisocaproic acid): 0.0000 | Log2(fold change) IDP ([1]; metabolite IDP): -0.1372 | Log2(fold change) IMP ([1]; metabolite IMP): 0.0398 | Log2(fold change) Inositol ([1]; metabolite Inositol): 0.0000 | Log2(fold change) Isopentyl-PP ([1]; metabolite Isopentyl-PP): 0.0000 | Log2(fold change) L-arginino-succinate ([1]; metabolite L-arginino-succinate): 0.0109 | Log2(fold change) LD ([1]; metabolite LD): 0.0079 | Log2(fold change) Myristoyl/tetradecanoyl-CoA ([1]; metabolite Myristoyl/tetradecanoyl-CoA): 0.0000 | Log2(fold change) N-Acetyl-L-alanine ([1]; metabolite N-Acetyl-L-alanine): 0.0065 | Log2(fold change) N-acetyl-L-ornithine ([1]; metabolite N-acetyl-L-ornithine): -0.3674 | Log2(fold change) N-acetyl-glucosamine-1/6-phosphate ([1]; metabolite N-acetyl-glucosamine-1/6-phosphate): -0.2974 | Log2(fold change) N-acetyl-glutamate ([1]; metabolite N-acetyl-glutamate): -0.1156 | Log2(fold change) N-acetyl-glutamine ([1]; metabolite N-acetyl-glutamine): -0.4039 | Log2(fold change) N-carbamoyl-L-aspartate ([1]; metabolite N-carbamoyl-L-aspartate): -0.0890 | Log2(fold change) NAD+ ([1]; metabolite NAD+): -0.0062 | Log2(fold change) NADH ([1]; metabolite NADH): 0.3557 | Log2(fold change) NADP+ ([1]; metabolite NADP+): 0.1126 | Log2(fold change) NADPH ([1]; metabolite NADPH): 0.1591 | Log2(fold change) O-acetyl-L-serine ([1]; metabolite O-acetyl-L-serine): 0.0000 | Log2(fold change) Octoluse 8/1P ([1]; metabolite Octoluse 8/1P): -0.0134 | Log2(fold change) Octoluse Bisphosphate ([1]; metabolite Octoluse Bisphosphate): -0.3290 | Log2(fold change) PD ([1]; metabolite PD): -0.6855 | Log2(fold change) PE ([1]; metabolite PE): -0.6905 | Log2(fold change) PEE ([1]; metabolite PEE): -0.7885 | Log2(fold change) PEEK ([1]; metabolite PEEK): -0.8519 | Log2(fold change) PVNF ([1]; metabolite PVNF): -0.9231 | Log2(fold change) Pyroglutamic acid ([1]; metabolite Pyroglutamic acid): -0.1373 | Log2(fold change) Pyrophosphate ([1]; metabolite Pyrophosphate): 0.0000 | Log2(fold change) Ribose-5-phosphate ([1]; metabolite Ribose-5-phosphate): -0.3312 | Log2(fold change) S-adenosyl-L-homocysteine ([1]; metabolite S-adenosyl-L-homocysteine): -0.0194 | Log2(fold change) S-adenosyl-L-methioninamine ([1]; metabolite S-adenosyl-L-methioninamine): 0.0000 | Log2(fold change) S-adenosyl-L-methionine ([1]; metabolite S-adenosyl-L-methionine): 0.0000 | Log2(fold change) S-methyl-5'-thioadenosine ([1]; metabolite S-methyl-5'-thioadenosine): 0.0000 | Log2(fold change) SD ([1]; metabolite SD): -0.4923 | Log2(fold change) SDL ([1]; metabolite SDL): 0.0000 | Log2(fold change) SID ([1]; metabolite SID): 0.0000 | Log2(fold change) Sedoheptulose bisphosphate ([1]; metabolite Sedoheptulose bisphosphate): -0.3584 | Log2(fold change) Thiamine pyrophosphate ([1]; metabolite Thiamine pyrophosphate): 0.0000 | Log2(fold changes) UDP-D-glucose ([1]; metabolite UDP-D-glucose, log2 fold change): 0.1494 | Log2(fold changes) UDP-D-glucuronate ([1]; metabolite UDP-D-glucuronate, log2 fold change): 0.0070 | Log2(fold changes) UDP-N-acetyl-glucosamine ([1]; metabolite UDP-N-acetyl-glucosamine, log2 fold change): 0.1156 | Log2(fold changes) UDP ([1]; metabolite UDP, log2 fold change): 0.2283 | Log2(fold changes) UMP ([1]; metabolite UMP, log2 fold change): 0.2317 | Log2(fold changes) UTP ([1]; metabolite UTP, log2 fold change): 0.2213 | Log2(fold change) hydroxyphenylpyruvate ([1]; metabolite hydroxyphenylpyruvate): 0.0000 | Log2(fold change) hydroxyproline/Aminolevulinate ([1]; metabolite hydroxyproline/Aminolevulinate): -0.0075 | Log2(fold change) hypoxanthine ([1]; metabolite hypoxanthine): 0.1648 | Log2(fold change) indole ([1]; metabolite indole): 0.3490 | Log2(fold change) inosine ([1]; metabolite inosine): -0.0766 | Log2(fold change) isoleucine ([1]; metabolite isoleucine): 0.0000 | Log2(fold change) lactate ([1]; metabolite lactate): -0.2025 | Log2(fold change) leucine ([1]; metabolite leucine): 0.0000 | Log2(fold change) lysine ([1]; metabolite lysine): -0.5734 | Log2(fold change) malate ([1]; metabolite malate): -0.3950 | Log2(fold change) maleic acid ([1]; metabolite maleic acid): -0.3624 | Log2(fold change) methionine ([1]; metabolite methionine): 0.0256 | Log2(fold change) myo-inositol ([1]; metabolite myo-inositol): -0.1977 | Log2(fold change) nicotinamide mononucleotide ([1]; metabolite nicotinamide mononucleotide): 0.0000 | Log2(fold change) nicotinate ([1]; metabolite nicotinate): -0.1013 | Log2(fold change) ornithine ([1]; metabolite ornithine): -0.1781 | Log2(fold change) orotate ([1]; metabolite orotate): 0.2133 | Log2(fold change) orotidine-5'-phosphate ([1]; metabolite orotidine-5'-phosphate): 0.1629 | Log2(fold change) oxaloacetate ([1]; metabolite oxaloacetate): 0.0000 | Log2(fold change) p-aminobenzoate ([1]; metabolite p-aminobenzoate): -0.0216 | Log2(fold change) p-hydroxybenzoate ([1]; metabolite p-hydroxybenzoate): 0.3646 | Log2(fold change) pantothenate ([1]; metabolite pantothenate): -0.2828 | Log2(fold change) phenylalanine ([1]; metabolite phenylalanine): -0.1837 | Log2(fold change) phenylpyruvate ([1]; metabolite phenylpyruvate): 0.0000 | Log2(fold change) phosphoenolpyruvate ([1]; metabolite phosphoenolpyruvate): -0.3146 | Log2(fold change) prephenate ([1]; metabolite prephenate): -0.3616 | Log2(fold change) proline ([1]; metabolite proline): -0.1191 | Log2(fold change) pyridoxine ([1]; metabolite pyridoxine): -0.0925 | Log2(fold change) pyruvate ([1]; metabolite pyruvate): -0.4635 | Log2(fold change) riboflavin ([1]; metabolite riboflavin): 0.1454 | Log2(fold change) ribose ([1]; metabolite ribose): 0.2742 | Log2(fold change) ribose-phosphate ([1]; metabolite ribose-phosphate): 0.0000 | Log2(fold change) ribulose-5-phosphate ([1]; metabolite ribulose-5-phosphate): 0.0000 | Log2(fold change) serine ([1]; metabolite serine): 0.1757 | Log2(fold change) sn-glycerol-3-phosphate ([1]; metabolite sn-glycerol-3-phosphate): -0.3504 | Log2(fold change) succinate/Methylmalonic acid ([1]; metabolite succinate/Methylmalonic acid): -0.0586 | Log2(fold change) succinyl-CoA/methylmalonyl-CoA ([1]; metabolite succinyl-CoA/methylmalonyl-CoA): 0.0000 | Log2(fold change) taurine ([1]; metabolite taurine): 0.0000 | Log2(fold change) thiamine ([1]; metabolite thiamine): -0.0019 | Log2(fold change) threonine/homoserine ([1]; metabolite threonine/homoserine): -0.0036 | Log2(fold change) thymidine ([1]; metabolite thymidine): 0.0000 | Log2(fold changes) thymine ([1]; metabolite thymine, log2 fold change): 0.0000 | Log2(fold changes) trehalose-6-Phosphate ([1]; metabolite trehalose-6-Phosphate, log2 fold change): 0.0000 | Log2(fold changes) tryptophan ([1]; metabolite tryptophan, log2 fold change): -0.0140 | Log2(fold changes) tyrosine ([1]; metabolite tyrosine, log2 fold change): 0.0814 | Log2(fold changes) uridine ([1]; metabolite uridine, log2 fold change): 0.2403 | overall activity profile (stages on which active) ([3]; 8-h exposures): activity against only schizonts | Stage of peak activity (Figure 6) ([3]; period when the parasite was most susceptible (lowest IC50^8h)): schizonts
